{
  "source": "patent US20260053767A1",
  "about": "“Hepatoprotective Compositions And Methods” (Jemyll, Ltd., priority 2022, published 2026)",
  "tested_on": "rat primary HSCs",
  "test": "HSCs activation by flow cytometry (α-SMA and collagen type I protein expression)",
  "format": "cell-based",
  "settings": "3 days CM from palmitate-treated hepatocytes, then 1% (w/vol) for 24 hours, without compound 25.15%",
  "description": "A 10% (w/v) FFA-free BSA (Sigma) solution was prepared in ddH2O and maintained at 55° C. in a water bath. 10 mM FFA/1% BSA solution was obtained by complexing the appropriate amount of palmitate stock solution to 10% BSA at 55° C. for another 30 min. The above solution was then cooled to 25° C., filter sterilized and stored at −20° C. until use. Primary hepatocytes were grown in DMEM supplemented with palmitate (0.4 mM). After 24 h. CM was clarified by centrifugation at 6000 g to remove cell debris, sterile filtered with a 0.45 μm pore size membrane filter and stored in aliquots at −20° C. until use.\nHepatic Stellate cells: Primary hepatic stellate cells were isolated from Wistar rats as described previously (7). In brief, the rats were surgically opened under anesthesia, and the livers were perfused through the IVC with 0.5 mM EGTA, after which the portal vein was cut and the upper IVC was clamped. […] HSCs activation was assessed by flow cytometry by evaluating alpha-smooth muscle Actin (α-SMA) and Collagen type I alpha 1 (COLIA1) protein expression. α-SMA and COLIA1 antibodies were obtained from Thermo Fisher scientific (Waltham, MA). Flow cytometric analysis was conducted with CytoFlex (Beckman Coulter, Brea, CA) and data analyzed with Kaluza software (Beckman Coulter, Brea, CA). […]",
  "data": [
    {"smiles": "O=C(O)CCCCCCCCCCC(=O)O", "note": "[DDDA, dodecanedioic acid]", "values": [
      {"measurement": "expression of COLA1A and α-SMA (flow cytometry)", "value": 9.18, "unit": "%"}
    ]}
  ]
}
